In patent US8673587B2, “Methods for identifying allosteric and other novel acyl-coenzyme A:cholesterol acyltransferase inhibitors” (Trustees of Dartmouth College, priority 2010, dated 2014):

Columns and labels:
[1] = molecular target: T1, histidine-tagged recombinant human ACAT2 (Homo sapiens, UniProt O75908); assay: Pregnenolone esterification in mixed micelles, ACAT2 as enzyme source; type: biochemical; settings: 1 μM [3H]-pregnenolone
T1 construct: made in house; partially purified on a nickel column
T1 sequence (O75908 1-522): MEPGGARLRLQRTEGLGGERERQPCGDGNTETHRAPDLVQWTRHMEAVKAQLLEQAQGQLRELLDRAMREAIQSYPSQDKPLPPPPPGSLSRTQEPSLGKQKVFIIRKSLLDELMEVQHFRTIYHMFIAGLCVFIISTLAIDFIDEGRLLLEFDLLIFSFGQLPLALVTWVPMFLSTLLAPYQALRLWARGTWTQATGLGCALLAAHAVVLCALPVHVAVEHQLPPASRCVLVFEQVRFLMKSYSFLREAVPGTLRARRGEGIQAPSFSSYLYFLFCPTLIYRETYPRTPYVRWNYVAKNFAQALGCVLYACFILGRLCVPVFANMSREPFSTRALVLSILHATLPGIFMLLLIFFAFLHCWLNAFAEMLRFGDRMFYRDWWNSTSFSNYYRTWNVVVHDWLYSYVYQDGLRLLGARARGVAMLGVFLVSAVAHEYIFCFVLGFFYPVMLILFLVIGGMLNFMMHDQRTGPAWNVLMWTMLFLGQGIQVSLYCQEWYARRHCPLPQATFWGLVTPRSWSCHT
From the text: (§1) The method of the present invention was developed in experiments using a mixed micelle enzyme assay system. […] A candidate ACAT inhibitor is an allosteric inhibitor if it is shown in the method of the present invention to inhibit cholesterol-dependent pregnenolone esterification but not to inhibit the basal pregnenolone esterification when cholesterol is absent in the assay mixture. […] In the assay system of the present invention, the source of ACAT was histidine-tagged recombinant human ACAT1 or human ACAT2, stably expressed in Chinese hamster ovary (CHO) cells that lack endogenous ACAT activity. However, one of skill in the art could employ other suitable mammalian cell systems as needed. The enzyme preparations used in the present method were partially purified through the use of nickel column chromatography, as described previously (Liu et al. 2005. Biochem. J. 391:389-397), using cells that stably expressing histidine-tagged recombinant human ACAT1 or human ACAT2 as the enzyme source.
(§2) In developing the method of the present invention, a series of experiments was performed. Pregnenolone is one compound that contains the classical A, B, C, D steroid rings as well as a 3 beta-OH moiety. Based on its structure, pregnenolone may be an ACAT substrate. However, this possibility had not previously been tested experimentally. In the present invention, the activity of pregnenolone was tested by using radiolabeled pregnenolone ([^3H]-pregnenolone) in a mixed micelle enzyme assay mixture that contained the detergent taurocholate (or CHAPS), phosphatidylcholine, and oleyl-coenzyme A bound to bovine serum albumin (BSA). The enzyme used was histidine-tagged human ACAT1 or human ACAT2. The esterification of pregnenolone (i.e., formation of pregnenolone oleate) was monitored by performing lipid extraction to isolate [^3H]-pregnenolone oleate and [^3H]-pregnenolone. [^3H]-pregnenolone oleate was then separated from [^3H]-pregnenolone by using conventional thin-layer chromatography. Levels of [^3H]-pregnenolone oleate formed was measured using a scintillation counter. […] Thus, using ACAT1 as the enzyme source, the esterification of DHEA was examined (FIG. 1C).
(§3) To assay the enzyme, the pregnenolone/detergent/PC micelles and the cholesterol/detergent/PC micelles were prepared individually as follows: the radiolabeled pregnenolone/PC mixture or the cholesterol/PC mixture was prepared as described previously (Shi et al. 1989. Biochim. Biophys. Acta 982:187-195) and lyophilized to remove residual organic solvents. After lyophilization, the detergent sodium taurocholate (or other detergent such as CHAPS) in Buffer A was added to reach a final concentration of 10 mg/ml. The mixture was purged with nitrogen, followed by sonication until this mixture was clear. The pregnenolone/PC micelles were mixed with the cholesterol/PC micelles such that the cholesterol concentration is at 0 mM or at 0.32 mM, and the radioactive pregnenolone concentration is at 1 μM (specific activity 20 Ci/mmol).

ACAT1 = molecular target: T2, ACAT1 (Homo sapiens, UniProt P35610, M1L); assay: Cholesterol esterification in vitro ([3H]-oleoyl-CoA/BSA labeled substrate), cholesterol substrate saturation curve; type: biochemical; settings: pregnenolone added at 5 μM
T2 construct: hACAT-1 cDNA (nucleotide residues 1397-3046, a total of 550 amino acids); made in house; partially purified on a nickel column
T2 sequence (P35610 1-550 M1L): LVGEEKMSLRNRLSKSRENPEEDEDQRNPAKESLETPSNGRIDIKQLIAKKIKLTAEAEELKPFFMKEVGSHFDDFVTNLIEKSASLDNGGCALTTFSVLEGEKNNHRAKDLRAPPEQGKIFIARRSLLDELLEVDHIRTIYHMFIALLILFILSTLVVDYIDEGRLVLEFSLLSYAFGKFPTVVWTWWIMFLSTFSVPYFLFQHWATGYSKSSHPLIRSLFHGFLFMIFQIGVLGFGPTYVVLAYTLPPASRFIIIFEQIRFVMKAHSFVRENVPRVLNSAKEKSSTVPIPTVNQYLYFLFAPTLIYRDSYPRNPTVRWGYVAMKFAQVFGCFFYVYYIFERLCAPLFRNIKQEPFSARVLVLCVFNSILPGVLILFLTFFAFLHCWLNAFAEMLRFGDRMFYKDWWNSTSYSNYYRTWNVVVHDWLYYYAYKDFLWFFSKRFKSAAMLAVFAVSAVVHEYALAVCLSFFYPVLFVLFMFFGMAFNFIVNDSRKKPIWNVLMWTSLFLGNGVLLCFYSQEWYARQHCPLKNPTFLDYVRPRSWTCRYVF
From the text: (§6) ACAT1 was the enzyme source. [^3H]-oleoyl-CoA/BSA was the labeled substrate.

[2] = molecular target: T3, histidine-tagged recombinant human ACAT1 (Homo sapiens, UniProt P35610, M1L); assay: Steroid (pregnenolone/DHEA/E2) esterification in mixed micelles, ACAT1 as enzyme source; type: biochemical; settings: for ACAT1 substrate activity: 1 μM [3H]-steroid
T3 construct: hACAT-1 cDNA (nucleotide residues 1397-3046, a total of 550 amino acids); made in house; partially purified on a nickel column
T3 sequence (P35610 1-550 M1L): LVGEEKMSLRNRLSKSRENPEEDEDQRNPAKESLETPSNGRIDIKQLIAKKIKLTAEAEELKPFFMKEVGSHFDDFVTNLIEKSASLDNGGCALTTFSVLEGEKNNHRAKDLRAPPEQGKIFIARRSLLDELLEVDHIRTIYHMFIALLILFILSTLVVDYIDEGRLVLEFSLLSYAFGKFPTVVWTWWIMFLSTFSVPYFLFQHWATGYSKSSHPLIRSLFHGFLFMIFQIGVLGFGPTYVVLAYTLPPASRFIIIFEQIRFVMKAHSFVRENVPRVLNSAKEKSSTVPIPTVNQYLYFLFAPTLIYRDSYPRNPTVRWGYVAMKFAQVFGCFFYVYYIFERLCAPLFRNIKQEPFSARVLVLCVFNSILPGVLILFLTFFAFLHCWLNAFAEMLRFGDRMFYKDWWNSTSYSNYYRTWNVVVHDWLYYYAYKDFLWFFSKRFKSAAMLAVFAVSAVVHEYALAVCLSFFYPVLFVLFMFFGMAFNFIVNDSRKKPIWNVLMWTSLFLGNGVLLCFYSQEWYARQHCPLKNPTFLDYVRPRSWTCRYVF
From the text: as §1, §2
A pregnenolone substrate saturation curve was then constructed, with or without addition of cholesterol to the assay mixture, using ACAT1 as the enzyme source (FIG. 2A). […] Then, a DHEA substrate saturation curve was constructed, with cholesterol present.
Further experiments were performed to examine the effect of adding various non-oxysterols, at a concentration of 0.32 mM, on pregnenolone esterification in vitro, with ACAT1 as the enzyme source.
as §3

[3] = substrate: CC(C)CCC[C@@H](C)[C@H]1CC[C@H]2[C@@H]3CC=C4C[C@@H](O)CC[C@]4(C)[C@H]3CC[C@]12C; assay: Cholesterol esterification in vitro ([3H]-oleoyl-CoA/BSA labeled substrate), cholesterol substrate saturation curve; type: biochemical, human; settings: other: ACAT1
From the text: as §6

[4] = substrate: CCCCCCCCCCCCCCCCCC(=O)SCCNC(=O)CCNC(=O)[C@H](O)C(C)(C)COP(=O)(O)OP(=O)(O)OC[C@H]1O[C@@H](n2cnc3c(N)ncnc32)[C@H](O)[C@@H]1OP(=O)(O)O; assay: Steady-state enzyme kinetics with fatty acyl-CoA as variable substrate, purified HisACAT1/FLAG; type: biochemical, human; settings: other: constant, saturating cholesterol in CHAPS/PC mixed micelles
Method: (§4) To monitor enzyme activity during enzyme purification, the enzyme solubilized in the detergent CHAPS was assayed in preformed taurocholate/cholesterol/phosphatidylcholine (PC) mixed micelles as described previously (Chang, C. C. et al. 1998. J. Biol. Chem. 273:35132-35141), with a final concentration of taurocholate at 9.3 mM, PC at 11.2 mM, and cholesterol at 1.6 mM. The amount of mixed micelle solution was used to dilute the detergent presented in the enzyme preparation, so the final CHAPS/PC molar ratio was less than 0.4. The fatty acyl-CoA substrate saturation curves and cholesterol substrate saturation curves were performed under the same conditions as described previously (Chang, C. C. et al. 1998. supra).
(§5) Prior to conducting binding experiments, steady-state enzyme kinetic experiments were conducted using purified HisACAT1/FLAG as the enzyme source and either oleoyl- (18:1) CoA or stearoyl- (18:0) CoA as the variable substrate, at a constant, saturating level of cholesterol in the CHAPS/PC mixed micelles.

[5] = substrate: CCCCCCCC/C=C\CCCCCCCC(=O)SCCNC(=O)CCNC(=O)[C@H](O)C(C)(C)COP(=O)(O)OP(=O)(O)OC[C@H]1O[C@@H](n2cnc3c(N)ncnc32)[C@H](O)[C@@H]1OP(=O)(O)O; assay: as above; type: biochemical, human; settings: other: constant, saturating cholesterol in CHAPS/PC mixed micelles
Method: as §4, §5

[6] = presence of excess cholesterol (0.32 mM)

CC(=O)[C@H]1CC[C@H]2[C@@H]3CC=C4C[C@@H](O)CC[C@]4(C)[C@H]3CC[C@]12C [pregnenolone]
ACAT2 substrate activity ([1]; absence of cholesterol): very poor substrate | ACAT2 substrate activity [1, 6]: much better substrate | inhibition of cholesterol esterification (ACAT1): 10-15% | estimated Km, fold lower than that of cholesterol ([2]; ACAT1, cholesterol present): 600 fold | ACAT1 substrate activity ([2]; absence of cholesterol): very poor substrate | ACAT1 substrate activity [2, 6]: much better substrate | Km ([2]; with cholesterol present in vitro (0.32 mM), read-out: apparent Km as ACAT1 substrate): ~1.2 µM | Km as ACAT1 substrate ([2]; without cholesterol present in vitro): too high to be measurable

B1: ACAT1 (Homo sapiens; M1L) (protein)
chain: LVGEEKMSLRNRLSKSRENPEEDEDQRNPAKESLETPSNGRIDIKQLIAKKIKLTAEAEELKPFFMKEVGSHFDDFVTNLIEKSASLDNGGCALTTFSVLEGEKNNHRAKDLRAPPEQGKIFIARRSLLDELLEVDHIRTIYHMFIALLILFILSTLVVDYIDEGRLVLEFSLLSYAFGKFPTVVWTWWIMFLSTFSVPYFLFQHWATGYSKSSHPLIRSLFHGFLFMIFQIGVLGFGPTYVVLAYTLPPASRFIIIFEQIRFVMKAHSFVRENVPRVLNSAKEKSSTVPIPTVNQYLYFLFAPTLIYRDSYPRNPTVRWGYVAMKFAQVFGCFFYVYYIFERLCAPLFRNIKQEPFSARVLVLCVFNSILPGVLILFLTFFAFLHCWLNAFAEMLRFGDRMFYKDWWNSTSYSNYYRTWNVVVHDWLYYYAYKDFLWFFSKRFKSAAMLAVFAVSAVVHEYALAVCLSFFYPVLFVLFMFFGMAFNFIVNDSRKKPIWNVLMWTSLFLGNGVLLCFYSQEWYARQHCPLKNPTFLDYVRPRSWTCRYVF
notes: hACAT-1 cDNA (nucleotide residues 1397-3046, a total of 550 amino acids); made in house; partially purified on a nickel column
Km [3]: 300 µM

B2: HisACAT1/FLAG (recombinant hACAT1) (Homo sapiens; M1L) (protein)
chain: LVGEEKMSLRNRLSKSRENPEEDEDQRNPAKESLETPSNGRIDIKQLIAKKIKLTAEAEELKPFFMKEVGSHFDDFVTNLIEKSASLDNGGCALTTFSVLEGEKNNHRAKDLRAPPEQGKIFIARRSLLDELLEVDHIRTIYHMFIALLILFILSTLVVDYIDEGRLVLEFSLLSYAFGKFPTVVWTWWIMFLSTFSVPYFLFQHWATGYSKSSHPLIRSLFHGFLFMIFQIGVLGFGPTYVVLAYTLPPASRFIIIFEQIRFVMKAHSFVRENVPRVLNSAKEKSSTVPIPTVNQYLYFLFAPTLIYRDSYPRNPTVRWGYVAMKFAQVFGCFFYVYYIFERLCAPLFRNIKQEPFSARVLVLCVFNSILPGVLILFLTFFAFLHCWLNAFAEMLRFGDRMFYKDWWNSTSYSNYYRTWNVVVHDWLYYYAYKDFLWFFSKRFKSAAMLAVFAVSAVVHEYALAVCLSFFYPVLFVLFMFFGMAFNFIVNDSRKKPIWNVLMWTSLFLGNGVLLCFYSQEWYARQHCPLKNPTFLDYVRPRSWTCRYVF
notes: hACAT1 contains 550 amino acids; made in house
Km [4]: 6.4 µM | Km [5]: 1.3 µM
